According to ChEMBL document CHEMBL5550198, “Impact of atropisomerism on a non-steroidal glucocorticoid receptor agonist” (RSC Med Chem, 2024):

Assays:
[1] = Retention time of the compound by HPLC analysis; format: physicochemical
Glucocorticoid receptor = molecular target: T1, Glucocorticoid receptor (Homo sapiens, UniProt P04150); experiment: Agonist activity at glucocorticoid receptor (unknown origin) incubated for 24 hrs by cell based microplate analysis
T1 sequence (P04150 whole entry): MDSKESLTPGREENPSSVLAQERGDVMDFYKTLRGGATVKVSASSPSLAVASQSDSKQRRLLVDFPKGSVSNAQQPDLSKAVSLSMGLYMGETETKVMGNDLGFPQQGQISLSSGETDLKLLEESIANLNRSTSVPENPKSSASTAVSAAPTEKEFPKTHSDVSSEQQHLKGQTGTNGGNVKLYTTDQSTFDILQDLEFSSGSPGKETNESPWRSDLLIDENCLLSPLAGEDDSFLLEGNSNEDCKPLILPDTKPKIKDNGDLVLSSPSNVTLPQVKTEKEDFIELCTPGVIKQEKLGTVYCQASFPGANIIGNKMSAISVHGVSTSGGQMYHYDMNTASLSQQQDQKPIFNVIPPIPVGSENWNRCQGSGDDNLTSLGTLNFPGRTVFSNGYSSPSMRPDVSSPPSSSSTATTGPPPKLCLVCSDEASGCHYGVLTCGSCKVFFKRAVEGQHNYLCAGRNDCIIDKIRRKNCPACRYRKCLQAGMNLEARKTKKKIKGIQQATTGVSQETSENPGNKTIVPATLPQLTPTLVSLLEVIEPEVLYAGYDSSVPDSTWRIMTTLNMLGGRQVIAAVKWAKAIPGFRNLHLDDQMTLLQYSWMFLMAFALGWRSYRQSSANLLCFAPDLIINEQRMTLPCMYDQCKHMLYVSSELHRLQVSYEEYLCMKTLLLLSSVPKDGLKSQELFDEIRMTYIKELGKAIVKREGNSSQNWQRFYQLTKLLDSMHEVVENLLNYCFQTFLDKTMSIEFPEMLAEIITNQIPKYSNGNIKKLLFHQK

Retention_time [1] | EC50 (Glucocorticoid receptor) | Structure (SMILES)
2.279 min | – | CCN(C[C@@](O)(CNC(=O)c1cnn(-c2ccc(F)cc2)c1N)C(F)(F)F)C(=O)c1c(C)cccc1F
2.39 min | 9 nM | CCc1cccc(Cl)c1C(=O)N(CC)C[C@@](O)(CNC(=O)c1cnn(-c2ccc(F)cc2)c1N)C(F)(F)F (stereo in doubt; 14a)
2.979 min | 2 nM | CCN(C[C@@](O)(CNC(=O)c1cnn(-c2ccc(F)cc2)c1N)C(F)(F)F)C(=O)c1c(F)cccc1Cl
2.36 min | 4 nM | CCN(C[C@@](O)(CNC(=O)c1cnn(-c2ccc(F)cc2)c1N)C(F)(F)F)C(=O)c1c(C)cccc1Cl (stereo in doubt; 10b)
2.314 min | 2 nM | CCN(C[C@@](O)(CNC(=O)c1cnn(-c2ccc(F)cc2)c1N)C(F)(F)F)C(=O)c1c(C)cccc1Cl (stereo in doubt; 10a)
3.06 min | – | CCN(C[C@](O)(CNC(=O)c1cnn(-c2ccc(F)cc2)c1N)C(F)(F)F)C(=O)c1c(Cl)cccc1Cl
2.349 min | – | CCN(C[C@@](O)(CNC(=O)c1cnn(-c2ccc(F)cc2)c1N)C(F)(F)F)C(=O)c1c(C)cccc1C
2.337 min | 2 nM | CCN(C[C@@](O)(CNC(=O)c1cnn(-c2ccc(F)cc2)c1N)C(F)(F)F)C(=O)c1c(Cl)cccc1Cl
2.396 min | 0.5 nM | CCc1cccc(Cl)c1C(=O)N(CC)C[C@@](O)(CNC(=O)c1cnn(-c2ccc(F)cc2)c1N)C(F)(F)F (stereo in doubt; 14b)
2.417 min | – | CCc1cccc(C)c1C(=O)N(CC)C[C@@](O)(CNC(=O)c1cnn(-c2ccc(F)cc2)c1N)C(F)(F)F (stereo in doubt; 13b)

The remaining lines, values behind:

Structure (SMILES) | Retention_time [1] | EC50 (Glucocorticoid receptor)
CCN(C[C@@](O)(CNC(=O)c1cnn(-c2ccc(F)cc2)c1N)C(F)(F)F)C(=O)c1c(F)cccc1F | 2.228 min | 5 nM
CCN(C[C@@](O)(CNC(=O)c1cnn(-c2ccc(F)cc2)c1N)C(F)(F)F)C(=O)c1ccccc1C | 2.179 min | –
CCc1cccc(C)c1C(=O)N(CC)C[C@@](O)(CNC(=O)c1cnn(-c2ccc(F)cc2)c1N)C(F)(F)F (stereo in doubt; 13a) | 2.394 min | –
CCc1cccc(CC)c1C(=O)N(CC)C[C@@](O)(CNC(=O)c1cnn(-c2ccc(F)cc2)c1N)C(F)(F)F | 2.544 min | 122 nM
CCc1ccccc1C(=O)N(CC)C[C@@](O)(CNC(=O)c1cnn(-c2ccc(F)cc2)c1N)C(F)(F)F | 2.353 min | 4 nM
CCN(C[C@@](O)(CNC(=O)c1cnn(-c2ccc(F)cc2)c1N)C(F)(F)F)C(=O)c1ccccc1F | 2.249 min | 26 nM
CCN(C[C@@](O)(CNC(=O)c1cnn(-c2ccc(F)cc2)c1N)C(F)(F)F)C(=O)c1ccccc1Cl | 2.238 min | –
CCN(C[C@@](O)(CNC(=O)c1cnn(-c2ccc(F)cc2)c1N)C(F)(F)F)C(=O)c1ccccc1 | 2.163 min | 78 nM
